The record followed here is publication PMC11855827, “High-Throughput Screening of Five Compound Libraries for Anthelmintic Activity and Toxicity Leads to the Discovery of Two Flavonoid Compounds” (International Journal of Molecular Sciences, 2025).

Usually inhibition stands for the share of the control response that was lost under treatment.

Read-outs that look alike come from different tables or passages of the source.

For this assay, the system named is C. elegans. Nature of the assay: microbe, parasite or virus in culture. Particulars: Caenorhabditis elegans.
Where [1] appears, read: 0 h, read-out: Percentage of motility inhibition 0 h, Table S2, C. elegans SS assay, 110 μM, 0 h, averages of 4 data points.
Setting [2] is: 24 h, read-out: Percentage of motility inhibition 24 h, Table S2, C. elegans SS assay, 110 μM, 24 h, averages of 4 data points.
[3] abbreviates: 0 h, read-out: Percentage of motility inhibition 0 h.
The mark [4] stands for this setting: 24 h, read-out: Percentage of motility inhibition 24 h.

For `C=C1[C@@H](O)[C@]2(O)OC[C@]34[C@H]2[C@@]2(C)[C@H](O)C(=O)C=C(C)[C@@H]2C[C@H]3OC(=O)[C@H](O)[C@@]14O` [Eurycomanone], the inhibition at 110 µM turned out to be 0% under setting [1] and 4% under setting [2].
For the compound `C[C@@H]1CC[C@]2(C(=O)O)CC[C@]3(C)C(=CC[C@@H]4[C@@]5(C)C[C@@H](O)[C@@H](O)C(C)(C)[C@@H]5CC[C@]43C)[C@@H]2[C@]1(C)O` [Euscaphic acid], the inhibition at 110 µM under setting [1] came out at 18% and the inhibition at 110 µM under setting [2] worked out at 27%.
The matching figures for `COc1ccc2c(OC)c3ccoc3nc2c1` [Evolitrine]: 0% and 15%.
The matching figures for `CC(=O)OCC(CCn1cnc2cnc(N)nc21)COC(C)=O` [Famciclovir]: 15% and 2%.
The matching figures for `COc1ccc2cc1Oc1ccc(cc1)C[C@H]1c3cc(c(OC)cc3CCN1C)Oc1c(O)c(OC)cc3c1[C@H](C2)N(C)CC3` [Fangchinoline]: 0% and 0%.
On to `Cc1oc(=O)oc1COC(=O)C1=C([C@H]2CCCO2)S[C@@H]2[C@@H]([C@@H](C)O)C(=O)N12` [Faropenem daloxate], for which the inhibition at 110 µM by setting is: under setting [1], 5%; under setting [2], 17%.
For the compound `Cc1c(O)c(C)c2c(c1O)C(=O)C[C@@H](c1ccc(O)cc1)O2` [Farrerol], the inhibition at 110 µM amounted to 6% under setting [3] and 9% under setting [4].
In the case of `O=C(C[C@H]1NCCC[C@@H]1O)Cn1cnc2ccccc2c1=O` [Febrifugine], the inhibition at 110 µM by setting is: under setting [1], 0%; under setting [2], 0%.
As for `COC(=O)Nc1nc2ccc(Sc3ccccc3)cc2[nH]1` [Fenbendazole], the inhibition at 110 µM is 8% under setting [1] and 14% under setting [2].
Consider `CC12CCC(C1)C(C)(C)C2O` (centres unmarked) [Fenchyl alcohol], for which the inhibition at 110 µM was 2% under setting [1] and 0% under setting [2].
`CSc1ccc(OCc2ncc([N+](=O)[O-])n2C)cc1` [Fexinidazole]: the inhibition at 110 µM by setting is: under setting [1], 11%; under setting [2], 29%.
The matching figures for `O=c1c(O)c(-c2ccc(O)c(O)c2)oc2cc(O)ccc12` [Fisetin]: 0% and 2%.
The matching figures for `COc1cc(O)c(C(=O)/C=C/c2ccc(O)cc2)c(OC)c1` [Flavokawain C]: 18% and 20%.
Consider `O=c1cc(-c2ccccc2)oc2ccccc12` [Flavone], for which the inhibition at 110 µM runs as follows: under setting [1], 0%; under setting [2], 5%.
The matching figures for `O=c1c(O)c(-c2ccccc2)oc2ccccc12` [Flavonol]: 2% and 10%.
The matching figures for `CCC(=O)c1c(O)cc(O)cc1O` [Flopropione]: 40% and 18%.
In the case of `CS(=O)(=O)c1ccc([C@@H](O)[C@@H](CF)NC(=O)C(Cl)Cl)cc1` [Florfenicol], the inhibition at 110 µM under setting [1] came to 29% and the inhibition at 110 µM under setting [2] was 9%.
The matching figures for `OC(Cn1cncn1)(Cn1cncn1)c1ccc(F)cc1F` [Fluconazole]: 7% and 12%.
The matching figures for `Nc1[nH]c(=O)ncc1F` [Flucytosine]: 23% and 32%.
The matching figures for `CC1CCc2cc(F)cc3c(=O)c(C(=O)O)cn1c23` (centres unmarked) [Flumequine]: 20% and 21%.
Regarding `Nc1nc(=O)c2nc(CNc3ccc(C(=O)N[C@@H](CCC(=O)O)C(=O)O)cc3)cnc2[nH]1` [Folic acid], the inhibition at 110 µM under setting [1] was 23% and the inhibition at 110 µM under setting [2] is 17%.
The matching figures for `COc1ccc(-c2coc3cc(O)ccc3c2=O)cc1` [Formononetin]: 6% and 31%.
The matching figures for `C=C[C@@]1(C)CC(=O)[C@]2(O)[C@@]3(C)[C@@H](O)CCC(C)(C)[C@@H]3[C@H](O)[C@H](OC(C)=O)[C@@]2(C)O1` [Forskolin]: 0% and 2%.
As for `O=P(O)(O)OC(Cn1cncn1)(Cn1cncn1)c1ccc(F)cc1F` [Fosfluconazole], the inhibition at 110 µM runs as follows: under setting [1], 17%; under setting [2], 0%.
The matching figures for `CC1=C2C(=O)O[C@@H](c3ccoc3)[C@]2(C)CCC1` [Fraxinellone]: 0% and 6%.
The matching figures for `O=C(CO)[C@@H](O)[C@H](O)[C@H](O)CO` [Fructose]: 0% and 3%.
The matching figures for `Cc1cccc(C)c1NC(=O)c1ccccc1C(=O)O` [Ftaxilide]: 18% and 10%.
With `O=C(O)/C=C/C(=O)O` [Fumaric acid], the inhibition at 110 µM under setting [1] came to 8% and the inhibition at 110 µM under setting [2] was determined as 5%.
The matching figures for `O=C1CN(/N=C/C=C/c2ccc([N+](=O)[O-])o2)C(=O)N1` [Furagin]: 6% and 0%.
The matching figures for `O=C1OCCN1/N=C/c1ccc([N+](=O)[O-])o1` [Furazolidone]: 21% and 7%.
Turning to `CC(=O)O[C@H]1C[C@@]2(C)[C@@H](C[C@@H](O)[C@H]3[C@@]4(C)CC[C@@H](O)[C@@H](C)[C@@H]4CC[C@@]32C)/C1=C(\CCC=C(C)C)C(=O)O` [Fusidic acid], the inhibition at 110 µM came out at 0% under setting [1] and 1% under setting [2].
`CC(C)OC(=O)[C@H](C)N[P@](=O)(CO[C@H](C)Cn1cnc2c(N)ncnc21)Oc1ccccc1` [GS‐7340]: the inhibition at 110 µM worked out at 11% under setting [3] and 1% under setting [4].
With `O=c1c(O)c(-c2ccccc2)oc2cc(O)cc(O)c12` [Galangin], the inhibition at 110 µM reads like this: under setting [1], 10%; under setting [2], 8%.
As for `O=C(O)c1cc(O)c(O)c(O)c1` [Gallic acid], the inhibition at 110 µM reads like this: under setting [1], 66%; under setting [2], 34%.
With `CC(C)=CCC/C(C)=C/Cc1c(O)c(CC=C(C)C)c2c(c1O)C(=O)C1=C[C@@H]3C[C@H]4C(C)(C)O[C@@](C/C=C(/C)C(=O)O)(C3=O)[C@@]14O2` [Gambogenic acid], the inhibition at 110 µM is, setting by setting: under setting [1], 1%; under setting [2], 8%.
On to `Nc1nc(O)c2ncn(COC(CO)CO)c2n1` [Ganciclovir], for which the inhibition at 110 µM runs as follows: under setting [1], 22%; under setting [2], 5%.
The matching figures for `C/C(C=O)=C\CC[C@@H](C)[C@H]1CC[C@@]2(C)C3=CC[C@H]4C(C)(C)C(=O)CC[C@]4(C)C3=CC[C@]12C` [Ganoderal A]: 7% and 25%.
The matching figures for `C/C(=C\C(=O)CC(C)C(=O)O)[C@H]1C[C@H](O)[C@@]2(C)C3=C(C(=O)C[C@]12C)[C@@]1(C)CCC(=O)C(C)(C)[C@@H]1C[C@@H]3O` (some centres unmarked) [Ganoderenic acid A]: 0% and 0%.
The matching figures for `C/C(=C\C(=O)CC(C)C(=O)O)[C@H]1CC(=O)[C@@]2(C)C3=C(C(=O)C[C@]12C)[C@@]1(C)CC[C@H](O)C(C)(C)[C@@H]1C[C@@H]3O` (some centres unmarked) [Ganoderenic acid B]: 0% and 42%.
Turning to `C[C@H](CC(=O)C[C@@H](C)[C@H]1C[C@H](O)[C@@]2(C)C3=C(C(=O)C[C@]12C)[C@@]1(C)CCC(=O)C(C)(C)[C@@H]1C[C@@H]3O)C(=O)O` [Ganoderic acid A], the inhibition at 110 µM is, setting by setting: under setting [1], 15%; under setting [2], 6%.
The matching figures for `CC(CC(=O)C[C@@H](C)[C@H]1CC(=O)[C@@]2(C)C3=C(C(=O)C[C@]12C)[C@@]1(C)CC[C@H](O)C(C)(C)[C@@H]1C[C@@H]3O)C(=O)O` (some centres unmarked) [Ganoderic acid B]: 0% and 20%.
Turning to `C/C(=C\CC[C@@H](C)[C@H]1CC[C@@]2(C)C3=C(CC[C@]12C)[C@@]1(C)CCC(=O)C(C)(C)[C@@H]1CC3=O)C(=O)O` [Ganoderic acid DM], the inhibition at 110 µM reads like this: under setting [3], 6%; under setting [4], 1%.
In the case of `CC(CC(=O)C[C@@H](C)[C@H]1CC(=O)[C@@]2(C)C3=C(C(=O)C[C@]12C)[C@@]1(C)CCC(=O)C(C)(C)[C@@H]1C[C@@H]3O)C(=O)O` (some centres unmarked) [Ganoderic acid D], the inhibition at 110 µM under setting [1] was 0% and the inhibition at 110 µM under setting [2] turned out to be 21%.
The matching figures for `CC(=O)O[C@@H]1C(=O)C2=C(C(=O)C[C@H]3C(C)(C)C(=O)CC[C@]23C)[C@]2(C)C(=O)C[C@H]([C@H](C)CC(=O)CC(C)C(=O)O)[C@@]12C` (some centres unmarked) [Ganoderic acid F]: 14% and 2%.
The matching figures for `CC(CC(=O)C[C@@H](C)[C@H]1CC(=O)[C@@]2(C)C3=C(C(=O)[C@@H](O)[C@]12C)[C@@]1(C)CC[C@H](O)C(C)(C)[C@@H]1C[C@@H]3O)C(=O)O` (some centres unmarked) [Ganoderic acid G]: 0% and 3%.
The matching figures for `C/C(=C\CC[C@@H](C)[C@H]1CC[C@@]2(C)C3=CC[C@H]4C(C)(C)[C@@H](O)CC[C@]4(C)C3=CC[C@]12C)CO` [Ganoderol B]: 5% and 35%.
Consider `C=C(C)[C@@H](CC=C(C)C)C[C@@]12C[C@@H](CC=C(C)C)C(C)(C)[C@@](CC=C(C)C)(C(=O)C(C(=O)c3ccc(O)c(O)c3)=C1O)C2=O` [Garcinol], for which the inhibition at 110 µM runs as follows: under setting [1], 8%; under setting [2], 3%.
For the compound `COc1ccc(-c2cc(=O)c3c(O)c(OC)c(OC)c(OC)c3o2)cc1` [Gardenin B], the inhibition at 110 µM reads like this: under setting [1], 6%; under setting [2], 0%.
As to `COC(=O)C1=CO[C@@H](O[C@@H]2O[C@H](CO)[C@@H](O)[C@H](O)[C@H]2O)[C@H]2[C@@H]1C=C[C@@]2(O)CO` [Gardenoside], the inhibition at 110 µM by setting is: under setting [3], 0%; under setting [4], 8%.
